Assay results from patent publication US7915299B2, “2-(2-hydroxyphenyl)benzimidazoles useful for treating obesity and diabetes” (High Point Pharmaceuticals, LLC, priority 2006, dated 2011).

| Structure (SMILES) | melting point [°C] |
| --- | --- |
| Cc1c(Cl)cc(C(C)(C)C)c(O)c1-c1nc2cc(S(=O)(=O)C(F)(F)F)ccc2[nH]1 [Example 1, 6-tert-Butyl-4-chloro-3-methyl-2-(5-trifluoromethanesulfonyl-1H-benzimidazol-2-yl)-phenol] | 253 to 254 |
| Cc1ccc(C(C)(C)C)c(O)c1-c1nc2cc(C#N)ccc2[nH]1 [Example 4, 2-(3-tert-Butyl-2-hydroxy-6-methyl-phenyl)-1H-benzimidazole-5-carbonitrile] | 212 to 215 |
| CCN(CC)S(=O)(=O)c1ccc2[nH]c(-c3c(C)c(Cl)cc(C(C)(C)C)c3O)nc2c1 [Example 6, 2-(3-tert-Butyl-5-chloro-2-hydroxy-6-methyl-phenyl)-1H-benzimidazole-5-sulfonic acid diethylamide] | 277 to 278 |
| Cc1c(Cl)cc(C(C)(C)C)c(O)c1-c1nc2cc(OC(F)(F)F)ccc2[nH]1 [Example 7, 6-tert-Butyl-4-chloro-3-methyl-2-(5-trifluoromethoxy-1H-benzimidazol-2-yl)-phenol] | 243 to 244 |
| COc1ccc(C(C)(C)C)c(O)c1-c1nc2cc(S(=O)(=O)C(F)(F)F)ccc2[nH]1 [Example 8, 6-tert-Butyl-3-methoxy-2-(5-trifluoromethanesulfonyl-1H-benzimidazol-2-yl)-phenol] | 55 to 56 |
| CSc1cc(C(C)(C)C)c(O)c(-c2nc3cc(S(=O)(=O)C(F)(F)F)ccc3[nH]2)c1C [Example 9, 6-tert-Butyl-3-methyl-4-methylsulfanyl-2-(5-trifluoromethanesulfonyl-1H-benzimidazol-2-yl)-phenol] | 210 to 211 |

The remaining lines, values ahead:

| melting point [°C] | Structure (SMILES) |
| --- | --- |
| 245 to 247 | Cc1c(F)cc(C(C)(C)C)c(O)c1-c1nc2ccc(S(=O)(=O)C(F)(F)F)cc2[nH]1 [Example 11, 6-tert-Butyl-4-fluoro-3-methyl-2-(5-trifluoromethanesulfonyl-1H-benzimidazol-2-yl)-phenol] |
| 218 to 220 | Cc1ccc(C(C)(C)C)c(O)c1-c1nc2ccc(S(=O)(=O)C(F)(F)F)cc2[nH]1 [Example 12, 6-tert-Butyl-3-methyl-2-(5-trifluoromethanesulfonyl-1H-benzimidazol-2-yl)-phenol] |
| 235 to 236 | Cc1c(Br)cc(C(C)(C)C)c(O)c1-c1nc2cc(OC(F)(F)F)ccc2[nH]1 [Example 13, 6-tert-Butyl-4-bromo-3-methyl-2-(5-trifluoromethoxy-1H-benzimidazol-2-yl)-phenol] |
